# Experimental data from article PMC11156954, “Inhibition and transport mechanisms of the ABC transporter hMRP5” (Nature Communications, 2024).
# “Also recorded” adds a separate entry of the source. No end group written: not given here.
# Legend:
# hMRP5-Δ1-94 [1] = target: T1, hMRP5-Δ1-94 (Homo sapiens, UniProt O15440); experiment: cryo-EM of the reconstituted peptide complex; type: binding; settings: peptide and hMRP5-Δ1-94 at 2:1 ratio, on ice, 1 h; inward-open complex
# T1 construct: The codon-optimized full-length human ABCC5 gene encoding the MRP5 protein (UniProt ID: O15440); 8xHis (C); 2xstrep (C); made in house; host or cells: HEK293F
# T1 sequence (O15440 95-1437 limits assumed, stated change not applied): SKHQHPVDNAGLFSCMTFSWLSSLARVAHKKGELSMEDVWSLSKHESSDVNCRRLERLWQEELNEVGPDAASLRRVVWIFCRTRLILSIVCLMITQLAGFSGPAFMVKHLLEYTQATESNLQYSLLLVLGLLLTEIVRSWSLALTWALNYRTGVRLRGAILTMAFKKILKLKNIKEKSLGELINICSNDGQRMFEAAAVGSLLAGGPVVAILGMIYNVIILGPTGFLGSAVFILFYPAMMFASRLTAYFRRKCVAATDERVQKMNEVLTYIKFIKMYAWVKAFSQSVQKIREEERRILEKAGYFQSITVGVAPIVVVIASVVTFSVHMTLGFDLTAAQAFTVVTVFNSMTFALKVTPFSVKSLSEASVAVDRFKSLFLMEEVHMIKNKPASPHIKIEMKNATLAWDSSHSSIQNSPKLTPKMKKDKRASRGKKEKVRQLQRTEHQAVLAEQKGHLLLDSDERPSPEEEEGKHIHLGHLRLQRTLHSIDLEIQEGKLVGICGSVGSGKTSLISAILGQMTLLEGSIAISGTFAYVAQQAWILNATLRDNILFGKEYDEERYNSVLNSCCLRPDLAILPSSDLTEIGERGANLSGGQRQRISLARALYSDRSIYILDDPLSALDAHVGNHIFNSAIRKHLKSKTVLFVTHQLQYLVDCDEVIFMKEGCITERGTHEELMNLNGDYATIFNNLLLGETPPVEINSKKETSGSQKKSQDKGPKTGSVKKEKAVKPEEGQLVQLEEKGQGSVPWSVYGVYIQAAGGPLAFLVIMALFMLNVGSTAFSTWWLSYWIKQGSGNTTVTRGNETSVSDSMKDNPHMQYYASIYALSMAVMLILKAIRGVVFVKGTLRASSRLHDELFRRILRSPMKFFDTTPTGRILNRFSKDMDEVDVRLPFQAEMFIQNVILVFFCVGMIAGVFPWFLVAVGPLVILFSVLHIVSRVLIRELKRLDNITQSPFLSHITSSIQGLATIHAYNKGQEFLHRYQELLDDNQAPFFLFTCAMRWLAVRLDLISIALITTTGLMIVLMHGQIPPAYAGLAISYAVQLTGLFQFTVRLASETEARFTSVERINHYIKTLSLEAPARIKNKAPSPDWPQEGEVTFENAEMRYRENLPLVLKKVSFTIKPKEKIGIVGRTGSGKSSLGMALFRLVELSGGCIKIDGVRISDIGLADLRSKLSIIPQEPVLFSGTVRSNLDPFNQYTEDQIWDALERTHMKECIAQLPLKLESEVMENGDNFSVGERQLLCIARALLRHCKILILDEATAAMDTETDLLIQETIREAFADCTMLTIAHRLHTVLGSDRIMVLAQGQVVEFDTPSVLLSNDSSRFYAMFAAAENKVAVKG
# Description: To assess if D35C-E75C can structurally block the transport pathway, we incubated it with hMRP5-Δ1-94 at a 2:1 ratio for in vitro reconstitution. The resulting high-resolution structure of the reconstituted complex maintained an inward-open conformation with both NBDs separated (Fig. 4c and Supplementary Fig. 7a–d). […] Given its ability to effectively occlude the binding pocket, we termed the D35C-E75C peptide MRP5 potential peptide inhibitor (M5PI).
# Freshly purified MRP5 protein was concentrated to ~5 mg/ml. Then, 5 μl proteins were added to the freshly glow-discharged (0.39 mBar air, 15 mA, 50 s) holey carbon grid (Quantifoil Au R1.2/1.3, 300 mesh). The grids were plunge-frozen in liquid ethane using an FEI Vitrobot Mark IV (Thermo Fisher Scientific) under the following conditions: waiting time, 11 s; blot time, 4 s; blot force, −2; temperature, 10 °C; and humidity, 100%. Next, the grids were transferred to and stored in liquid nitrogen until data acquisition. For the peptide M5PI-bound complex, the peptide and hMRP5-Δ1-94 were incubated together on ice at a ratio of 2:1 for 1 h before vitrification. […]
# The single-particle analysis procedures for all states are summarized in the supplementary information (Supplementary Figs. 1, 2, 4, 5, 7 and 8). […] The overall resolution of the final map was determined by the 0.143 criterion of the gold-standard Fourier shell correlation. […]
# hMRP5-Δ1-94 [2] = target: T1, hMRP5-Δ1-94; experiment: MST binding assay, hMRP5-Δ1-94; settings: MST, digitonin-purified hMRP5-Δ1-94, 15 min at room temperature
# Description: We monitored the binding of different peptides to digitonin-purified hMRP5-Δ1-94-8xHis by MST assay (Monolith NT). HEPES buffer was used to replace Tris buffer during protein purification in the MST assay. The purified protein was mixed with RED-tris-NTA 2nd Generation dye (NanoTemper, MO-L018). Next, serially diluted peptides were mixed with the labeled protein. The mixtures were incubated for 15 min at room temperature, then the capillaries were loaded and the samples were assessed at 3% LED/excitation power and medium MST power. All peptides used in this study were synthesized in GL Biochem (Shanghai). The peptide sequence is provided as Source Data 5. The MST data were analyzed with MO.Affinity Analysis software.
sequence,measurement,setting,value
CSKFRRTRPLECQDALETAARAEGLSLDASMHSQLRILDEC (cysteines drawn unpaired) [M5PI],EM density of bound peptide,hMRP5-Δ1-94 [1],clear EM density for the bound D35C-E75C peptide in the central cavity
same,"binding affinity to hMRP5, in words",hMRP5-Δ1-94 [2],stronger hMRP5 affinity than selected anticancer drugs
same,"binding affinity to hMRP5, in words",hMRP5-Δ1-94 [2]; listed as Cys35-Cys75 peptide,higher affinity for hMRP5 compared to the original Asp35-Glu75 peptide
same,"binding affinity to hMRP5, in words",hMRP5-Δ1-94 [2]; listed as D35C-E75C,highest affinity for hMRP5 among these peptides; also recorded: higher binding affinity to hMRP5 than the well-studied substrate doxorubicin and inhibitor trequinsin
